Values joined by “and” are separate entries in the source; they are usually repeats but may differ in a detail not shown here. Equal values may be shown once. “Also recorded” adds a separate entry of the source. Read-outs that look alike come from different tables or passages of the source.
What was measured:
[1] = Partition coefficient 1-octanol/buffer; assay type: physicochemical; settings: 1-octanol/buffer pH 7.4, 0.1 M phosphate
Protocol: The test tube was vortexed for 3 min at room temperature, then centrifuged for 5 min. Two weighed samples (2 g each) from the 1-octanol and buffer layers were counted in a well counter. The partition coefficient was determined by calculating the ratio of cpm/g of 1-octanol to that of buffer. Samples from the 1-octanol layer were re-partitioned until consistent partition coefficient values were obtained. The measurement was repeated 3 times.

[2] = target: T1, NET (norepinephrine transporter) (Homo sapiens, UniProt P23975); experiment: In vitro binding assay, membranes of LLC-PK1 cells expressing NET, [^125I]IPT
T1 construct: membrane homogenates
T1 sequence (P23975 whole entry): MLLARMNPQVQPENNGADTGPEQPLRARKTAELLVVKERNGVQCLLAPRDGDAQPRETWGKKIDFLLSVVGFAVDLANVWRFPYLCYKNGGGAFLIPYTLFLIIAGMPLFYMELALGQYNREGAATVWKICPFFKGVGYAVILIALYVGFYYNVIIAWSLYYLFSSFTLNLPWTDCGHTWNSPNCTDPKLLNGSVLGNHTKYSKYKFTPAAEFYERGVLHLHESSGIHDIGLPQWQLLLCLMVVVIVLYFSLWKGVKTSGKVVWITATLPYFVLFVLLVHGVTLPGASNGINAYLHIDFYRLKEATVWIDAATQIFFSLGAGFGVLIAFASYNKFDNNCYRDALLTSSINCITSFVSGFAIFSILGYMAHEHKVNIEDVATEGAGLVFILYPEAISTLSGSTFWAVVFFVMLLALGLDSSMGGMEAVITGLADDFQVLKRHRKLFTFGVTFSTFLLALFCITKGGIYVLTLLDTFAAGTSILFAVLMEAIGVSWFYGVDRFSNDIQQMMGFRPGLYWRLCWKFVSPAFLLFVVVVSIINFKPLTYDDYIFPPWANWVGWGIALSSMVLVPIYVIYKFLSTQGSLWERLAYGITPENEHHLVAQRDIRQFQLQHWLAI
Protocol: (§1) Preparation of membrane homogenates: LLC-PK1 cells from pig kidney permanently expressing DAT, NET and SERT, respectively (LLC-DAT, LLC-NET and LLC-SERT) were kindly provided by Dr. G. Rudnick at Yale University. These cells were grown to confluence as a monolayer on 15 cm petri dish as reported previously. […] Cells were then washed once with phosphate buffer saline (w/ Ca^2+ and Mg^2+) (Bio-Whittaker) and harvested with 10 mL PBS by scraping. The cell suspensions were homogenized on ice for 20 strokes and centrifuged at 17,000 rpm for 20 min at 4° C. The pellets were re-suspended in PBS, frozen quickly in liquid N2 and stored in a −70° C. freezer.
(§2) Binding assays: Binding assays were performed in a final volume of 0.2 mL. […] Incubation was carried out for one h at room temperature and the bound ligand was collected on glass fiber filters (Schleicher & Schuell No. 25, Keene, N.H.) presoaked with 1% polyethylenimine (Sigma, St. Louis, Mo.) and counted in a gamma counter (Packard 5000). Results of competition experiments were subjected to nonlinear regression analysis using EBDA (Elsevier-BIOSOFT, Cambridge, UK).

[3] = target: T2, DAT (dopamine transporter) (Rattus norvegicus, UniProt P23977); experiment: In vitro binding assay, membranes of LLC-PK1 cells expressing DAT, [^125I]IPT
T2 construct: membrane homogenates
T2 sequence (P23977 whole entry): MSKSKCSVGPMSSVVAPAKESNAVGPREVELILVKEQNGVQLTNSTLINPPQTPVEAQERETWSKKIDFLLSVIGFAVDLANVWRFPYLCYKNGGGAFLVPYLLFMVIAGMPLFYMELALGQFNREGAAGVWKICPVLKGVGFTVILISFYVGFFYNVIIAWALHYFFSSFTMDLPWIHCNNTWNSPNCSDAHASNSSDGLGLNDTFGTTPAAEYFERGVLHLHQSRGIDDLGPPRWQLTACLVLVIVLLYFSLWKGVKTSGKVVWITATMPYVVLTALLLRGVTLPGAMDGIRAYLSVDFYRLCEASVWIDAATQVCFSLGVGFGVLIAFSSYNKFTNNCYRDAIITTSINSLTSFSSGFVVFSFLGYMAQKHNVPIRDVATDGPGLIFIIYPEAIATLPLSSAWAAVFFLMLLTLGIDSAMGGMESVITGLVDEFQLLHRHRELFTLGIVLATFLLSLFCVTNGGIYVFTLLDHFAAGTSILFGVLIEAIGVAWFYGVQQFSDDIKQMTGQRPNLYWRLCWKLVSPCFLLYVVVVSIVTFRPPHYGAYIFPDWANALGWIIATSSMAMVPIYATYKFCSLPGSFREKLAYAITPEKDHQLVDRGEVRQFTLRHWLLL
Protocol: as §1, §2

SERT binding sites [4] = target: T3, SERT binding sites (Rattus norvegicus, UniProt P31652); experiment: Ex vivo autoradiography of rat brain sections; assay type: in vivo, rats; settings: rat, 2 mg/Kg 5 min prior to [^125I]4
T3 construct: from tissue; host or cells: rat brain in vivo (hypothalamus, cortex, striatum, hippocampus, cerebellum); ex vivo brain sections
T3 sequence (P31652 whole entry): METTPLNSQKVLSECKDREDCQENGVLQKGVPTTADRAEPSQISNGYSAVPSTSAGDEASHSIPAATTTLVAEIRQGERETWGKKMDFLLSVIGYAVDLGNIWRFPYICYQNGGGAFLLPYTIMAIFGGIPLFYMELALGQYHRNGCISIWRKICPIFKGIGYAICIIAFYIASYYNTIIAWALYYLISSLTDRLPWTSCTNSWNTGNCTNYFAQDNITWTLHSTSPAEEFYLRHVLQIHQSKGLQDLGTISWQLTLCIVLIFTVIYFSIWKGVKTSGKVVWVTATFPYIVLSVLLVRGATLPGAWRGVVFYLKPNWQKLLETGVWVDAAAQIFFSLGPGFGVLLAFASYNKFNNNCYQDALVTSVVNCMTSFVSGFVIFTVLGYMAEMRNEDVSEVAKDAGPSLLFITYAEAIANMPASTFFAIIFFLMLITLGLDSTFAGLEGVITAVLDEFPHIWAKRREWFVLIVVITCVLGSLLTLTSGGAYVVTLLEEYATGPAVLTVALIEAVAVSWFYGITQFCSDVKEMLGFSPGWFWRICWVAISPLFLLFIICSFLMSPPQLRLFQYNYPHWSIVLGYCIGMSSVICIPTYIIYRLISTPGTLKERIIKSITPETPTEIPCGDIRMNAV

SERT binding sites [5] = target: T3, SERT binding sites; experiment: In vivo competitive binding / blocking of [^125I]4 regional uptake; settings: rats, drug 2 mg/kg i.v. 5 min prior to tracer, 120 min after [^125I]4
Excerpt: The reduction of regional specific binding in the drug-pretreated rats was compared to the control animals with saline pretreatment.

[6] = target: T4, SERT (serotonin transporter) (Rattus norvegicus, UniProt P31652); experiment: In vitro binding assay, membranes of LLC-PK1 cells expressing SERT, [^125I]IDAM
T4 construct: membrane homogenates
T4 sequence (P31652 whole entry): as above
Protocol: as §1, §2

serotonin transporters = target: T5, serotonin transporters (Rattus norvegicus, UniProt P31652); experiment: Regional brain distribution and specific binding ratio in rats; assay type: in vivo
T5 construct: from tissue; host or cells: rat brain in vivo (hypothalamus, cortex, striatum, hippocampus, cerebellum); ex vivo brain sections
T5 sequence (P31652 whole entry): as above
Protocol: Regional brain distribution in rats was measured after an i.v. injection of the radioactive tracer. Samples from different brain regions: cortex (frontal plus occipital), striatum, hippocampus, cerebellum and hypothalamus were dissected, weighed and counted. The percentage dose/g of each sample was calculated by comparing sample counts with the counts of the diluted initial dose described above. The specific binding ratio in each region was obtained by dividing the % dose/gram values between region by that in the cerebellum ([region-cerebellum/cerebellum]). The cerebellum region containing little or no serotonin transporters was used as the background region.

[7] = Biodistribution in rats after iv injection (organs); assay type: in vivo
Protocol: Biodistribution in rats: Three rats per group were used for each biodistribution study. While under ether anesthesia, 0.2 mL of a saline solution containing 10 μCi of radioactive tracer was injected into the femoral vein. The rats were sacrificed at the time indicated by cardiac excision while under ether anesthesia. Organs of interest were removed and weighed, and the radioactivity was counted. The percent dose per organ was calculated by a comparison of the tissue counts to counts of 1% of the initial dose (100 times diluted aliquots of the injected material) measured at the same time.

[8] = Stability of the radioactive material
[9] = LLC-PK1 cells expressing SERT, read-out: Ki SERT

Q: With `CN(C)Cc1ccccc1Sc1ccc([125I])cc1N` [[^125I]ADAM (3), reference compound] as the compound, how does the Partition coefficient [1] read?
A: The Partition coefficient was 335.

Q: Which Ki [2] does the source give for `CN(C)Cc1ccccc1Oc1ccc(I)cc1CO` [Compound 2, reference compound] here?
A: The Ki was 20 ± 2 nM.

Q: What about the Ki [3] of the same compound?
A: The Ki was greater than 1000 nM.

Q: With `CSc1ccc([C@@H]2CN3CCC[C@@H]3c3ccccc32)cc1` [(+)McN5652] as the compound, how does the “effect of pretreatment on specific uptake of [^125I]4 in brain regions (autoradiography)” value (SERT binding sites [4]) read?
A: Its value is “totally eliminated”.

Q: And the “effect of pretreatment on specific binding/uptake of [^125I]4 in hypothalamus” value (SERT binding sites [5])?
A: The value was “completely eliminated the specific binding; also recorded: significantly blocked”.

Q: For `CN(C)Cc1ccccc1Oc1ccc(I)cc1N` [Compound 4, 2-(2-(Dimethylaminomethyl)phenoxy)-5-iodophenylamine], which Ki [6] is on record?
A: The Ki was 0.37 ± 0.11 nM.

Q: What about the “selectivity for SERT over NET and DAT” value [6] of the same compound?
A: The value was “more than 500 fold”.

Q: And the “hypothalamus uptake compared to other radioiodinated compounds” value (serotonin transporters; 60-240 min post i.v. injection)?
A: Its value is “highest hypothalamus uptake among all of the radioiodinated compounds”.

Q: And the “higher uptake in hypothalamus than ADAM (3)” value (serotonin transporters; between 2 and 4 h)?
A: The value was “more than 200%”.

Q: And the “Regional brain distribution HY (hypothalamus)” value (serotonin transporters; iv, 120 min)?
A: Its value is 0.92 % dose/g.

Q: What about the “Regional brain distribution HY (hypothalamus)” value (serotonin transporters; iv, 240 min) of the same compound?
A: The value was 0.32 % dose/g.

Q: And the “increase in brain uptake vs ADAM (3)” value ([7]; 2 and 4 h after i.v. injection)?
A: Its value is “two to three-fold increase”.

Q: And the brain uptake ([7]; 2 h after i.v. injection)?
A: Its brain uptake is 1.08 % dose/brain.

Q: What about the brain uptake ([7]; 4 h after i.v. injection) of the same compound?
A: Its brain uptake is 0.33 % dose/brain.

Q: And the Ki [2]?
A: The Ki was 286 ± 36 nM.

Q: What about the Partition coefficient [1] of the same compound?
A: The Partition coefficient was 418.

Q: And the Ki [3]?
A: The Ki was 309 ± 65 nM.

Q: Which results are given for `CN(C)Cc1ccccc1Cc1ccc([125I])cc1N` [[^125I]5, 2-(2-(Dimethylaminomethyl)benzyl)-5-[^125I]iodophenylamine]?
A: Ratio of (Region-Cerebellum)/Cerebellum, HY (serotonin transporters; iv, 120 min): 2.43; brain uptake ([7]; 2 min post-injection): 1.77 % dose and 1.77±0.049 % dose; Partition coefficient [1]: 1,730; stability in a refrigerator ([8]; refrigerator): stable in a refrigerator at least for three weeks

Q: For `CN(C)Cc1ccccc1Oc1ccc([125I])cc1N` [[^123I]4, [^125I][^123I]2-(2-(Dimethylaminomethyl)phenoxy)-5-iodophenylamine], which stability after labeling ([8]; after labeling) is on record?
A: Its stability after labeling is 24 h.

Q: With `O=C(c1ccc(F)cc1)C1CCN(CCn2c(=O)[nH]c3ccccc3c2=O)CC1` [ketanserin] as the compound, how does the “effect of pretreatment on specific binding/uptake of [^125I]4 in hypothalamus” value (SERT binding sites [5]) read?
A: The value was “did not show any significant effect”.

Q: Which “effect of pretreatment on specific binding/uptake of [^125I]4 in hypothalamus” value (SERT binding sites [5]) does the source give for `COC(=O)C(c1ccccc1)C1CCCCN1` (stereo not drawn) [methylphenidate] here?
A: The value was “did not show any significant effect”.

Q: Which “effect of pretreatment on specific binding/uptake of [^125I]4 in hypothalamus” value (SERT binding sites [5]) does the source give for `CCN1CCC[C@H]1CNC(=O)c1c(O)c(Cl)cc(Cl)c1OC` [raclopride] here?
A: The value was “did not show any significant effect”.

Q: For `CN(C)Cc1ccccc1Sc1ccc(C#N)cc1N` [DASB, reference compound], which Ki [6, 9] is on record?
A: Its Ki is 1.1 ± 0.04 nM.

Q: And the Ki [3]?
A: The Ki was greater than 1000 nM.

Q: Which Ki [6, 9] does the source give for `CN(C)Cc1ccccc1Cc1ccc(I)cc1N` [Compound 5, 2-(2-(dimethylaminomethyl)benzyl)-5-iodophenylamine] here?
A: Its Ki is 48.6 ± 4.1 nM.

Q: What about the Ki [2] of the same compound?
A: The Ki was 17 ± 4 nM.

Q: What about the Ki [3] of the same compound?
A: The Ki was greater than 1000 nM.

Q: With `CN(C)Cc1ccccc1Sc1ccc(I)cc1CO` [Compound 1, reference compound] as the compound, how does the Ki [6, 9] read?
A: The Ki was 0.097 ± 0.013 nM.

Q: And the Ki [2]?
A: The Ki was 234 ± 26 nM.

Q: And the Ki [3]?
A: The Ki was greater than 1000 nM.
